Source: publication PMC8464955, “Prediction of Drug–Drug Interaction Potential of Tegoprazan Using Physiologically Based Pharmacokinetic Modeling and Simulation” (Pharmaceutics, 2021)

Test system: CYP3A4
Experiment: Inhibition of tegoprazan metabolism in human liver microsomes by CYP inhibitors
Format: in vitro ADME
Conditions: in-house data
From the text: The major metabolic pathway of tegoprazan is the liver, and a negligible amount is excreted by urine. Both in vitro and clinical results have elucidated that tegoprazan is a potential substrate of cytochrome P450 (CYP) 3A4. […] According to the label of tegoprazan, systemic exposure to tegoprazan increases when tegoprazan is co-administered with clarithromycin. Based on the in vitro and clinical data, it can be inferred that drug–drug interaction (DDI) between tegoprazan and CYP3A4 inhibitor may occur. However, the clinical DDI studies of tegoprazan conducted so far have been limited to the DDI between tegoprazan and clarithromycin or clarithromycin and amoxicillin, because tegoprazan is likely to be administered with these medications for Helicobacter pylori eradication. Considering the substantial prevalence of acid-related diseases, tegoprazan is likely to be administered in combination with various drugs. […]
The elimination of the PBPK model consisted of enzyme kinetic and renal clearance (Table 1). Intrinsic clearances (CLint) of tegoprazan by various CYPs were determined by an in vitro study that measured the fraction of CLint inhibited by adding the inhibitors of CYP1A2, CYP2C9, CYP2C19, CYP2D6, and CYP3A to human liver microsomes (in-house data). […]

## CC(=O)N1CCN(c2ccc(OCC3COC(Cn4ccnc4)(c4ccc(Cl)cc4Cl)O3)cc2)CC1 (stereo not shown) [ketoconazole]
  effect of CYP inhibitor on the metabolism of tegoprazan: significantly inhibited
